Test results as given in ChEMBL document CHEMBL2440076, “New triarylpyrazoles as broad-spectrum anticancer agents: design, synthesis, and biological evaluation” (Eur J Med Chem, 2013).
pIC50: −log10 of the molar value.

Columns and labels:
[1] = test system: MDA-MB-435; assay: Growth inhibition of human MDA-MB-435 cells assessed as cell growth at 10 uM after 48 hrs by sulforhodamine B assay; assay type: functional; conditions: MDA-MB-435, 48 h, read-out: Activity
[2] = test system: DU-145; assay: Growth inhibition of human DU145 cells assessed as cell growth at 10 uM after 48 hrs by sulforhodamine B assay; assay type: functional; conditions: DU-145, 48 h, read-out: Activity
[3] = test system: COLO 205; assay: Growth inhibition of human COLO205 cells assessed as cell growth at 10 uM after 48 hrs by sulforhodamine B assay; assay type: functional; conditions: COLO 205, 48 h, read-out: Activity
[4] = test system: 786-0; assay: Growth inhibition of human 786-0 cells after 48 hrs by sulforhodamine B assay; assay type: functional; conditions: 786-0, 48 h
[5] = test system: SF-295; assay: Growth inhibition of human SF295 cells after 48 hrs by sulforhodamine B assay; assay type: functional, cell-based; conditions: SF-295, 48 h
[6] = test system: HT-29; assay: Growth inhibition of human HT-29 cells assessed as cell growth at 10 uM after 48 hrs by sulforhodamine B assay; assay type: functional; conditions: HT-29, 48 h, read-out: Activity
[7] = test system: IGROV-1; assay: Growth inhibition of human IGROV1 cells after 48 hrs by sulforhodamine B assay; assay type: functional; conditions: IGROV-1, 48 h
[8] = test system: U-251; assay: Growth inhibition of human U251 cells after 48 hrs by sulforhodamine B assay; assay type: functional; conditions: U-251, 48 h
[9] = test system: M14; assay: Growth inhibition of human M14 cells after 48 hrs by sulforhodamine B assay; assay type: functional; conditions: M14, 48 h
[10] = Growth inhibition of human Hs 578T cells assessed as cell growth at 10 uM after 48 hrs by sulforhodamine B assay; assay type: functional; conditions: read-out: Activity
[11] = test system: SR; assay: Growth inhibition of human SR cells after 48 hrs by sulforhodamine B assay; assay type: functional
[12] = test system: UACC-257; assay: Growth inhibition of human UACC257 cells assessed as cell growth at 10 uM after 48 hrs by sulforhodamine B assay; assay type: functional; conditions: UACC-257, 48 h, read-out: Activity
[13] = test system: SK-MEL-28; assay: Growth inhibition of human SK-MEL-28 cells after 48 hrs by sulforhodamine B assay; assay type: functional; conditions: SK-MEL-28, 48 h
[14] = test system: MOLT-4; assay: Growth inhibition of human MOLT4 cells after 48 hrs by sulforhodamine B assay; assay type: functional; conditions: MOLT-4, 48 h
[15] = test system: SK-MEL-2; assay: Growth inhibition of human SK-MEL-2 cells after 48 hrs by sulforhodamine B assay; assay type: functional; conditions: SK-MEL-2, 48 h
[16] = test system: UACC-62; assay: Growth inhibition of human UACC62 cells after 48 hrs by sulforhodamine B assay; assay type: functional; conditions: UACC-62, 48 h
[17] = test system: SK-OV-3; assay: Growth inhibition of human SKOV3 cells after 48 hrs by sulforhodamine B assay; assay type: functional; conditions: SK-OV-3, 48 h
[18] = test system: K562; assay: Growth inhibition of human K562 cells assessed as cell growth at 10 uM after 48 hrs by sulforhodamine B assay; assay type: functional; conditions: K562, 48 h, read-out: Activity
[19] = test system: MDA-MB-231; assay: Growth inhibition of human MDA-MB-231 cells assessed as cell growth at 10 uM after 48 hrs by sulforhodamine B assay; assay type: functional; conditions: MDA-MB-231, 48 h, read-out: Activity
[20] = test system: BT-549; assay: Growth inhibition of human BT549 cells assessed as cell growth at 10 uM after 48 hrs by sulforhodamine B assay; assay type: functional; conditions: BT-549, 48 h, read-out: Activity
[21] = test system: TK-10; assay: Growth inhibition of human TK10 cells assessed as cell growth at 10 uM after 48 hrs by sulforhodamine B assay; assay type: functional; conditions: TK-10, 48 h, read-out: Activity
[22] = test system: NCI-H522; assay: Growth inhibition of human NCI-H522 cells after 48 hrs by sulforhodamine B assay; assay type: functional; conditions: NCI-H522, 48 h
[23] = test system: SF-268; assay: Growth inhibition of human SF268 cells after 48 hrs by sulforhodamine B assay; assay type: functional; conditions: SF-268, 48 h
[24] = test system: HL-60(TB); assay: Growth inhibition of human HL-60(TB) cells after 48 hrs by sulforhodamine B assay; assay type: functional; conditions: HL-60, 48 h
[25] = test system: SN12C; assay: Growth inhibition of human SN12C cells after 48 hrs by sulforhodamine B assay; assay type: functional
[26] = test system: HOP-62; assay: Growth inhibition of human HOP62 cells after 48 hrs by sulforhodamine B assay; assay type: functional; conditions: HOP-62, 48 h
[27] = test system: ACHN; assay: Growth inhibition of human ACHN cells after 48 hrs by sulforhodamine B assay; assay type: functional
[28] = test system: MOLT-4; assay: Growth inhibition of human MOLT4 cells assessed as cell growth at 10 uM after 48 hrs by sulforhodamine B assay; assay type: functional; conditions: MOLT-4, 48 h, read-out: Activity
[29] = test system: MDA-MB-468; assay: Growth inhibition of human MDA-MB-468 cells assessed as cell growth at 10 uM after 48 hrs by sulforhodamine B assay; assay type: functional; conditions: MDA-MB-468, 48 h, read-out: Activity
[30] = test system: NCI-H226; assay: Growth inhibition of human NCI-H226 cells assessed as cell growth at 10 uM after 48 hrs by sulforhodamine B assay; assay type: functional; conditions: NCI-H226, 48 h, read-out: Activity
[31] = test system: HCT-116; assay: Growth inhibition of human HCT116 cells assessed as cell growth at 10 uM after 48 hrs by sulforhodamine B assay; assay type: functional; conditions: HCT-116, 48 h, read-out: Activity
[32] = test system: KM12; assay: Growth inhibition of human KM12 cells assessed as cell growth at 10 uM after 48 hrs by sulforhodamine B assay; assay type: functional; conditions: KM12, 48 h, read-out: Activity
[33] = test system: NCI-H23; assay: Growth inhibition of human NCI-H23 cells assessed as cell growth at 10 uM after 48 hrs by sulforhodamine B assay; assay type: functional; conditions: NCI-H23, 48 h, read-out: Activity
[34] = test system: OVCAR-8; assay: Growth inhibition of human OVCAR8 cells after 48 hrs by sulforhodamine B assay; assay type: functional; conditions: OVCAR-8, 48 h
[35] = read-out: LC50 (the source's name)

## O=C(Nc1cccc(-n2cc(-c3ccncc3)c(-c3ccc(Cl)c(O)c3)n2)c1)Nc1cc(C(F)(F)F)cc(C(F)(F)F)c1
[1]
  growth at 10 µM: -31.1%
[2]
  growth at 10 µM: -28.2%
[3]
  growth at 10 µM: -97.3%
[4]
  GI50: 1170 nM
  TGI: 3160 nM
[4]; [35]
  CC50: 18000 nM
[5]
  GI50: 618 nM
  pIC50: 6.21
  TGI: 1650 nM
[5]; [35]
  CC50: 4390 nM
[6]
  growth at 10 µM: -56%
[7]
  GI50: 896 nM
  LC50 (concentration killing 50% of cells): 38200 nM
  TGI: 3550 nM
[8]
  GI50: 463 nM
  LC50 (concentration killing 50% of cells): 2800 nM
  TGI: 1170 nM
[9]
  GI50: 607 nM
  LC50 (concentration killing 50% of cells): 6060 nM
  TGI: 1810 nM
[10]
  growth at 10 µM: -26%
[11]
  GI50: 922 nM
  TGI: 3660 nM
[11]; [35]
  CC50: > 50000 nM
[12]
  growth at 10 µM: -50.9%
[13]
  GI50: 796 nM
  LC50: 3090 nM
  TGI: 1570 nM
[14]
  GI50: 1150 nM
  TGI: 4360 nM
[14]; [35]
  CC50: > 50000 nM
[15]
  GI50: 1250 nM
  LC50 (50% lethal concentration): 14100 nM
  TGI: 3030 nM
[16]
  GI50: 749 nM
  LC50 (50% lethal concentration): 8460 nM
  TGI: 2190 nM
[17]
  GI50: 1350 nM
  TGI: 3810 nM
[17]; [35]
  CC50: > 50000 nM
[18]
  growth at 10 µM: -19.6%
[19]
  growth at 10 µM: -88.9%
[20]
  growth at 10 µM: -36%
[21]
  growth at 10 µM: -24.6%
[22]
  GI50: 724 nM
  LC50 (concentration killing 50% of cells): 12800 nM
  TGI: 2510 nM
[23]
  GI50: 846 nM
  TGI: 2690 nM
[23]; [35]
  CC50: 20500 nM
[24]
  GI50: 1500 nM
  TGI: 13500 nM
[24]; [35]
  CC50: > 50000 nM
[25]
  GI50: 1030 nM
  TGI: 5450 nM
[25]; [35]
  CC50: > 50000 nM
[26]
  GI50: 964 nM
  TGI: 1980 nM
[26]; [35]
  CC50: 4070 nM
[27]
  GI50: 624 nM
  TGI: 5270 nM
[27]; [35]
  CC50: 17300 nM
[28]
  growth at 10 µM: -18.5%
[29]
  growth at 10 µM: -23.9%
[30]
  growth at 10 µM: 1.17%
[31]
  growth at 10 µM: -59.1%
[32]
  growth at 10 µM: -50.3%
[33]
  growth at 10 µM: -7.93%
[34]
  GI50: 563 nM
  TGI: 5920 nM
[34]; [35]
  CC50: 43700 nM

## COc1cc(-c2nn(-c3cccc(NC(=O)Nc4ccccc4)c3)cc2-c2ccncc2)ccc1Cl
[1]
  growth at 10 µM: 22.6%
[2]
  growth at 10 µM: 101%
[3]
  growth at 10 µM: 92.4%
[6]
  growth at 10 µM: 84%
[10]
  growth at 10 µM: 82.7%
[12]
  growth at 10 µM: 84.5%
[18]
  growth at 10 µM: 45.4%
[19]
  growth at 10 µM: 88%
[20]
  growth at 10 µM: 89.9%
[21]
  growth at 10 µM: 116%
[28]
  growth at 10 µM: 57%
[29]
  growth at 10 µM: 83.4%
[30]
  growth at 10 µM: 92.3%
[31]
  growth at 10 µM: 87.2%
[32]
  growth at 10 µM: 73.7%
[33]
  growth at 10 µM: 100%

## O=C(Nc1cccc(-n2cc(-c3ccncc3)c(-c3ccc(Cl)c(O)c3)n2)c1)c1ccccc1
[1]
  growth at 10 µM: 56.1%
[2]
  growth at 10 µM: 56.9%
[3]
  growth at 10 µM: 100%
[6]
  growth at 10 µM: 53.5%
[10]
  growth at 10 µM: 48.4%
[12]
  growth at 10 µM: 44.2%
[18]
  growth at 10 µM: 60.7%
[19]
  growth at 10 µM: 63.2%
[20]
  growth at 10 µM: 83.4%
[21]
  growth at 10 µM: 109%
[28]
  growth at 10 µM: 69.5%
[29]
  growth at 10 µM: 64.1%
[30]
  growth at 10 µM: 89.6%
[31]
  growth at 10 µM: 57.8%
[32]
  growth at 10 µM: 70.1%
[33]
  growth at 10 µM: 90.8%
